Laboratory results reported in patent US12502369B2, “Methods of cancer treatment” (K-GEN, INC., priority 2015, dated 2025).
“Also recorded” adds a separate entry of the source. Read-outs that look alike come from different tables or passages of the source.

What was measured:
[1] = system: Capan-1; assay: Proliferation assay (CellTiter Glo), Capan-1; assay type: cell-based; details: for Top inhibition %: 96 hours
Method: (§1) Briefly, cells at a density of 1,000-10,000 cells/well were seeded in 96-well plates and incubated at 37′C for 24 hours. A series of 9 different concentrations of compound stocks (500×) were created by 3-fold serial dilution in DMSO. These compounds were further diluted in culture media and then added to cells so that the final DMSO concentration was 0.2%. After 96 hours of incubation, 50 μL of CellTiter Glo reagent (Promega) was added to each well and luminescence was measured after 10 minutes using EnVision (PerkinElmer). […] The dose range for most compounds was 4.6 nM-30 μM. The dose ranges for some compounds were adjusted downward to 0.46 nM-3 μM or 0.08 nM-0.5 μM or 0.03 nM-0.2 μM. Luminescence from cells treated with […] alone was set as Max and % of inhibition was calculated as follows: Inhibition %=(Max-Sample value)/Max*100. Data was analyzed using XL-fit software (ID Business Solutions Ltd.) and EC50, relative EC50, and % of top inhibition were calculated. The results are shown in Tables 3-6 for pancreatic cancer, lung cancer, colon/gastric cancer, and leukemia cell lines.

[2] = system: KP-4; assay: Proliferation assay (CellTiter Glo), KP-4; assay type: cell-based; details: for Top inhibition %: 96 hours
Method: as §1

[3] = system: MiaPaCa-2; assay: Proliferation assay (CellTiter Glo), MiaPaCa-2; assay type: cell-based; details: for Top inhibition %: 96 hours
Method: as §1, with “calculated.” for “calculated. The results are shown in Tables 3-6 for pancreatic cancer, lung cancer, colon/gastric cancer, and leukemia cell lines.”

[4] = system: Panc2.03; assay: Proliferation assay (CellTiter Glo), Panc2.03; assay type: cell-based; details: for Top inhibition %: 96 hours
Method: as §1

[5] = system: H358; assay: Proliferation assay (CellTiter Glo), H358; assay type: cell-based; details: for Top inhibition %: 96 hours
Method: as §1

[6] = system: LS180; assay: Proliferation assay (CellTiter Glo), LS180; assay type: cell-based; details: for Top inhibition %: 96 hours; for EC50: absolute EC50, 96 hours, read-out: Ab EC50
Method: as §1

[7] = system: SW620; assay: Proliferation assay (CellTiter Glo), SW620; assay type: cell-based; details: for Top inhibition %: 96 hours; for EC50: read-out: Ab EC50
Method: as §1

[8] = system: HCT116; assay: Proliferation assay (CellTiter Glo), HCT116; assay type: cell-based; details: for Top inhibition %: 96 hours
Method: as §1

[9] = system: THP1; assay: Proliferation assay (CellTiter Glo), THP1; assay type: cell-based; details: for Top inhibition %: 96 hours
Method: as §1

[10] = system: CCRF-CEM; assay: Proliferation assay (CellTiter Glo), CCRF-CEM; assay type: cell-based; details: for Top inhibition %: 96 hours
Method: as §1

[11] = system: SW900; assay: Proliferation assay (CellTiter Glo), SW900; assay type: cell-based; details: SW900 (K-ras: G12V)
Method: as §1, with “calculated.” for “calculated. The results are shown in Tables 3-6 for pancreatic cancer, lung cancer, colon/gastric cancer, and leukemia cell lines.”
(§2) Other cancer cell lines having wild-type K-ras status and K-ras mutation at G12 were also screened using the PKC activator compounds. […] K-104 was tested in a range of 0.03 nM-0.2 μM. […] The dose ranges were adjusted downward to 0.46 nM-3 μM for K-102 and 0.08 nM-0.5 μM for K-103 for some cell lines.

[12] = system: H838; assay: Proliferation assay (CellTiter Glo), H838; assay type: cell-based; details: H838 (WT K-ras)
Method: as §1, with “calculated.” for “calculated. The results are shown in Tables 3-6 for pancreatic cancer, lung cancer, colon/gastric cancer, and leukemia cell lines.”
as §2

[13] = system: H1915; assay: Proliferation assay (CellTiter Glo), H1915; assay type: cell-based; details: H1915 (WT K-ras)
Method: as §1, with “calculated.” for “calculated. The results are shown in Tables 3-6 for pancreatic cancer, lung cancer, colon/gastric cancer, and leukemia cell lines.”
as §2

[14] = system: HT29; assay: Proliferation assay (CellTiter Glo), HT29; assay type: cell-based; details: HT29 (WT K-ras)
Method: as §1, with “calculated.” for “calculated. The results are shown in Tables 3-6 for pancreatic cancer, lung cancer, colon/gastric cancer, and leukemia cell lines.”
as §2

[15] = system: Colo205; assay: Proliferation assay (CellTiter Glo), Colo205; assay type: cell-based; details: Colo205 (WT K-ras)
Method: as §1, with “calculated.” for “calculated. The results are shown in Tables 3-6 for pancreatic cancer, lung cancer, colon/gastric cancer, and leukemia cell lines.”
as §2

[16] = system: PKCμ and PKCδ in HFL-1 cells; assay: Activation of PKC isoforms in non-cancerous lung fibroblast HFL-1 cells; assay type: cell-based, human; details: 30 minutes
[17] = system: PKCδ; assay: PKCδ Tyr311 phosphorylation in A549, HCT116, SW620, Panc02.13 cells, Western blot; assay type: cell-based; details: 30 minutes
Method: Non-cancerous lung fibroblast cell line HFL-1 or cancer cells (2-8 million cells) were seeded in 10 cm dishes and grown overnight so that the cells were about 40-80% confluent before treatment with the compound. Cells were then treated with different drugs at indicated concentrations (see descriptions for FIG. 11 and FIG. 12) for 30 minutes. Cell lysate preparation, protein quantitation, SDS-PAGE, and Western blotting procedures are described in Example 2 and 4. Primary antibodies used in this Example and later Examples of this application are shown in Table A. Secondary antibodies Anti-mouse IgG HRP conjugate or Anti-rabbit IgG HRP conjugate (dilutions from 1:2000-1:10000) were used. Western blot membranes were scanned using Imagequant LAS4000 (GE). The results are shown in FIG. 11A and FIG. 11B for HFL-1 cells and FIG. 11C and FIG. 12 for A549 cells.

[18] = system: PKCδ, PKCμ, c-Raf in xMiaPaCa-2, MiaPaCa-2, Panc6.03, Panc1; assay: Activation of PKC isoforms in pancreatic cancer cell lines, Western blot; assay type: cell-based
[19] = system: PKCδ, PKCμ, c-Raf in MBT-2; assay: Activation of PKC isoforms in bladder cancer line MBT-2, Western blot; assay type: cell-based, mouse
[20] = system: MBT-2; assay: Anti-cell proliferative effects, MBT-2; assay type: cell-based, mouse
[21] = system: MH22A; assay: Anti-cell proliferative effects, MH22A; assay type: cell-based, mouse
[22] = Homo sapiens, absolute EC50, 96 hours, read-out: Ab EC50
[23] = Homo sapiens, relative EC50, 96 hours, read-out: Re EC50
[24] = absolute EC50, 96 hours, read-out: Ab EC50
[25] = relative EC50, 96 hours, read-out: Re EC50

Work on `CC(=O)O[C@@]12C[C@@H](C)[C@]3(O)C4C=C(C)C(=O)[C@@]4(O)CC(CO)=C[C@H]3[C@@H]1C2(C)C` (stereo partly shown) [Compound K-101A, Prostratin] yielded a Top inhibition % [1] of 37.1%, an EC50 [1, 22] greater than 30 µM and an EC50 [1, 23] of 0.31 µM. It also gave a Top inhibition % [2] of 63.3%, an EC50 [2, 22] of 0.4 µM and an EC50 [2, 23] of 0.19 µM. The Top inhibition % [3] was 74.4%, the EC50 ([3]; Homo sapiens, MIA PaCa-2, absolute EC50, 96 hours, read-out: Ab EC50) was 0.3 µM and the EC50 ([3]; Homo sapiens, MIA PaCa-2, relative EC50, 96 hours, read-out: Re EC50) was 0.18 µM. It also gave a Top inhibition % [4] of 27.0%, an EC50 ([4]; Homo sapiens, Panc203, absolute EC50, 96 hours, read-out: Ab EC50) greater than 30 µM and an EC50 ([4]; Homo sapiens, Panc203, relative EC50, 96 hours, read-out: Re EC50) of 0.12 µM. It also gave a Top inhibition % [5] of 56.4%, an EC50 ([5]; Homo sapiens, NCI-H358, absolute EC50, 96 hours, read-out: Ab EC50) of 4.9 µM and an EC50 ([5]; Homo sapiens, NCI-H358, relative EC50, 96 hours, read-out: Re EC50) of 0.16 µM. For the same molecule, the Top inhibition % [6] was 4.4%, the EC50 ([6]; Homo sapiens) was greater than 30 µM and the Top inhibition % [7] was 0.0%. The EC50 ([7]; Homo sapiens, SW-620, absolute EC50, 96 hours) was greater than 30 µM, the Top inhibition % [8] was 17.4% and the EC50 ([8]; Homo sapiens, HCT-116, absolute EC50, 96 hours, read-out: Ab EC50) was greater than 30 µM. It also gave a Top inhibition % [9] of 51.8%, an EC50 ([9]; Homo sapiens, THP-1, absolute EC50, 96 hours, read-out: Ab EC50) of 0.87 µM and an EC50 ([9]; Homo sapiens, THP-1, relative EC50, 96 hours, read-out: Re EC50) of 0.3 µM. For the same molecule, the Top inhibition % [10] was 35.9%, the EC50 [10, 22] was greater than 30 µM and the EC50 [10, 23] was 0.051 µM. The “Top inhibition %” value [11] was 7.1%, the “Top inhibition %” value [12] was 10.1% and the “Top inhibition %” value [13] was 27.7%. For the same molecule, the “Top inhibition %” value [14] was 12.8%, the “Top inhibition %” value [15] was 83.6% and the “phosphorylation of PKCμ at Ser916 and Ser744/748, and PKCδ at Thr505 and Tyr311” value [16] was “resulted in phosphorylation”. For the same molecule, the “PKCδ activation, phosphorylation at Tyr311” value [17] was “observed for cell lines HCT116 and SW620 but not as significantly for cell lines A549 and Pan 02,13; also recorded: observed for cell lines HCT116 and SW620 but not as significantly for cell lines A549 and Panc02.13”, the “phosphorylation of c-Raf at Ser338” value [18] was “induced phosphorylation” and the “phosphorylations of PKCδ at Thr505 and PKCμ at Ser744/748” value [18] was “increased”. For the same molecule, the “phosphorylations of PKCδ at Thr505, PKCμ at Ser744/748, PKCμ at Ser916, c-Raf at Ser338” value [19] was “induced phosphorylations”, the “sensitivity to anti-cell proliferative effects” value (“sensitivity” for short) [20] was “sensitive” and the “sensitivity” value [21] was “insensitive”.

`CC(=O)OCC1=C[C@H]2[C@@H]3C(C)(C)[C@]3(OC(C)=O)C[C@@H](C)[C@]2(O)C2C=C(C)C(=O)[C@@]2(O)C1` (stereo partly shown) [Compound K-101E] was tested, and the Top inhibition % [1] was 44.6%, the EC50 [1, 24] was greater than 30 µM and the EC50 [1, 25] was 0.83 µM. For the same molecule, the Top inhibition % [2] was 69.1%, the EC50 [2, 24] was 1.28 µM and the EC50 [2, 25] was 0.68 µM. It also gave a Top inhibition % [3] of 61.4%, an EC50 [3, 24] of 1.88 µM and an EC50 [3, 25] of 0.86 µM. It also gave a Top inhibition % [4] of 36.5%, an EC50 [4, 24] greater than 30 µM and an EC50 [4, 25] of 1.92 µM. For the same molecule, the Top inhibition % [5] was 47.9%, the EC50 [5, 24] was greater than 30 µM and the EC50 [5, 25] was 1.25 µM. It also gave a Top inhibition % [6] of 1.3%, an EC50 [6] greater than 30 µM and a Top inhibition % [7] of 0.0%. It also gave an EC50 ([7]; absolute EC50, 96 hours) greater than 30 µM, a Top inhibition % [8] of 27.4% and an EC50 [8, 24] greater than 30 µM. It also gave an EC50 [8, 25] of 6.64 µM, a Top inhibition % [9] of 51.6% and an EC50 [9, 24] of 3.6 µM. For the same molecule, the EC50 [9, 25] was 1.02 µM, the Top inhibition % [10] was 34.3% and the EC50 [10, 24] was greater than 30 µM. For the same molecule, the EC50 [10, 25] was 0.27 µM, the “Top inhibition %” value [11] was 25.4% and the “Top inhibition %” value [12] was 26.8%. For the same molecule, the “Top inhibition %” value [13] was 35.6%, the “Top inhibition %” value [14] was 31.7% and the “Top inhibition %” value [15] was 85.8%.

`C/C=C(/C)C(=O)O[C@H]1C(C)=C[C@]23C(=O)[C@@H](C=C(CO)[C@@H](O)[C@]12O)[C@H]1[C@@H](C[C@H]3C)C1(C)C` [Compound K-102, Ingenol-3-angelate, reference compound] was tested, and the “phosphorylation of PKCμ at Ser916 and Ser744/748, and PKCδ at Thr505 and Tyr311” value [16] was “resulted in phosphorylation”, the “PKCδ activation, phosphorylation at Tyr311” value [17] was “observed for PKC activator insensitive cell lines HCT116 and SW620 but not as significantly for sensitive cell lines A549 and Pan 02,13; also recorded: observed for cell lines HCT116 and SW620 but not as significantly for cell lines A549 and Panc02.13” and the “phosphorylations of PKCδ at Thr505 and PKCμ at Ser744/748” value ([18]; all four pancreatic cell lines, K101A 1 μM, K102 0.1 μM) was “increased”. For the same molecule, the “phosphorylation of c-Raf at Ser338” value ([18]; pancreatic cell lines, K101A 1 μM, K102 0.1 μM) was “induced phosphorylation”, the “phosphorylations of PKCδ at Thr505, PKCμ at Ser744/748, PKCμ at Ser916, c-Raf at Ser338” value ([19]; MBT-2, K101A 1 μM, K102 0.1 μM) was “induced phosphorylations” and the “sensitivity” value [20] was “sensitive”. The “sensitivity” value [21] was “insensitive”.
